Data as given in patent publication US8592446B2, “[1,10]-phenanthroline derivatives for the treatment of neurodegenerative or haematological diseases” (Noscira, S.A., priority 2007, dated 2013).
Like-named read-outs stand apart in the source and are kept apart here.

Columns and labels:
[1] = tested on: SH-SY5Y human neuroblastoma cells; assay: Toxicity: LDH activity release in SH-SY5Y cells; assay type: cell-based; conditions: 24 h; for Maximum concentration tested for toxicity: increasing concentrations from 1 μM up to 1 mM
Experimental: The potential effects on cell viability of the assayed compounds are assayed in SH-SY5Y human neuroblastoma cells, by quantification of Lactate dehydrogenase (LDH) activity release. SH-SY5Y human neuroblastoma cells are seeded into 96-well culture plates at 10^4 cells/well. The medium is then removed and the cells incubated with different concentrations of the compounds during 24 h. The compounds are tested at increasing concentrations starting from 1 μM, in fresh culture medium, in order to find the minimum concentration at which the compounds are toxic, up to a maximum of 1 mM. After 24 h, the medium is removed and cells attached to the bottom of the well are lysed by adding 50 μl of Krebs-Hepes; Triton X-100 1% during 5 minutes at room temperature. For LDH release quantification, the Roche cytotoxicity detection kit (Cat.
No. 11 644 793 001) is used. The LDH activity is measured by its absorbance at 492 nm with reference wavelength 620 nm.
In Table 1, for each compound the maximum concentration at which toxicity was tested is indicated in the second column. In the third column, it is indicated whether at this maximum concentration the compound was toxic or not. All the compounds, with the exception of Compound 3, resulted non-toxic at the concentration for which activity was found, in most of the cases even at a 1000-fold concentration. Thus, the compounds may be considered non-toxic.

[2] = tested on: SH-SY5Y human neuroblastoma cells; assay: Protection against hydrogen peroxide-induced cell death (LDH); assay type: cell-based; conditions: compound 1 h before H2O2 100 μM, 24 h; for minimal effective concentration: Homo sapiens, SH-SY5Y, read-out: Protect. H2O2 (minimum concentration for which protection was determined)
Experimental: The aim of this assay is to determine the neuroprotective effect of the compounds of formula (I), when human neuroblastoma cells are exposed to oxidative stress induced by hydrogen peroxide, which is highly deleterious to the cell and its accumulation causes oxidation of cellular targets such as DNA, proteins, and lipids leading to mutagenesis and cell death.
SH-SY5Y human neuroblastoma cells are seeded into 96-well culture plate at a density of 10^4 cells/well. Cells are exposed to different concentrations of the compound one hour before the treatment with H2O2 100 μM during 24 h. 5 mM N-acetylcysteine (NAC), a known anti-oxidant agent was used as a positive control, and preincubated 1 hour before the treatment with H2O2. After 24 h, the medium is removed and cells attached to the bottom of the well are lysed by adding 50 μl of Triton X-100 1% in Krebs-Hepes during 5 minutes at room temperature. For LDH release quantification, Roche cytotoxicity detection kit (Cat. No. 11 644 793 001) was used.

[3] = Screening pharmacokinetic study, plasma and brain (LC-MS/MS); assay type: in vivo, mice (C57BL6/J); conditions: mice; for Kp / bioavailability / Tmax / half-life / AUC / Cmax: male, C57BL6/J, mouse; for Kp: brain and plasma
Experimental: The objective of this study is to evaluate the oral bioavailability and the plasmatic and brain pharmacokinetic parameters after oral and intravenous administration, thus determining if compounds of formula (I) are able to cross the blood brain barrier (BBB). […] Each compound was solved in appropriate excipients. In the case of oral administration, compound was administered by means of an oral gavage coupled to a syringe. In the intravenous administration animals, the test item was administered by a single injection with a syringe coupled to a 30 G needle.
Two animals were sacrificed (according to internal SOPs and following animal handling and welfare guidelines) at each selected extraction times (i.e. 30 min, 1 h, 2 h, 4 h, 6 h, 8 h and 24 hours after administration), and from each animal, both brain and blood samples were obtained. Plasma was extracted by centrifugation of the blood samples. Each sample time represents two male mice from which samples were obtained.
The method for the analysis of plasma and brain samples involved isolation of the analyte from the biological matrix by protein precipitation or solid-phase extraction followed by analysis using LC-MS/MS. Limits of quantification for these compounds were in the order of 2-10 ng/mL. The software Winnonlin professional version 5.2 was used for the calculation of pharmacokinetic parameters.
In the following tables, the abbreviations have the meaning indicated below: • AUC=Area under the curve • T1/2=Half-life • Tmax=the time after administration of a drug when the maximum plasma concentration is reached; when the rate of absorption equals the rate of elimination • Cmax=maximum plasma concentration of the drug • V. Adm. and Vol. Adm.=volume of administration

[4] = iv, brain AUC relative to plasma AUC, intravenous route, group 1-2 mg/kg, read-out: % AUC
[5] = iv, brain Cmax relative to plasma Cmax, intravenous route, group 1-2 mg/kg, read-out: % Cmax
[6] = po, 20 mg/kg, brain AUC relative to plasma AUC, 20 mg/kg oral route, read-out: % AUC
[7] = po, 20 mg/kg, brain Cmax relative to plasma Cmax, 20 mg/kg oral route, read-out: % Cmax
[8] = po, 200 mg/kg, brain AUC relative to plasma AUC, 200 mg/kg oral route, read-out: % AUC
[9] = po, 200 mg/kg, brain Cmax relative to plasma Cmax, 200 mg/kg oral route, read-out: % Cmax
[10] = plasma, 20 mg/kg oral route (low dose)
[11] = plasma, 200 mg/kg oral route (high dose)
[12] = intravenous route, group 1-2 mg/kg (Compound 4, 8: 1.00; 7: 1.20; 10: 2.00 mg/Kg), brain
[13] = intravenous route, group 1-2 mg/kg (Compound 4, 8: 1.00; 7: 1.20; 10: 2.00 mg/Kg), plasma

| Structure (SMILES) | Maximum concentration tested for toxicity [1] [mM] | Toxic at maximum concentration tested (Yes/No) ([1]; at 1 mM) | Kp [3, 4] | Kp [3, 5] | Kp [3, 6] | Kp [3, 7] | bioavailability [3, 10] [%] | bioavailability [3, 11] [%] | Tmax ([3]; 20 mg/kg oral route, brain) [min] | AUC ([3]; 20 mg/kg oral route, plasma) [ng·h/mL] | Cmax ([3]; 20 mg/kg oral route, plasma) [ng/mL] | Tmax ([3]; 20 mg/kg oral route, plasma) [min] | half-life ([3]; 20 mg/kg oral route, plasma) [min] | Tmax [3, 12] [min] | AUC [3, 13] [ng·h/mL] | Cmax [3, 13] [ng/mL] | Tmax [3, 13] [min] | half-life [3, 13] [min] | Cmax Brain ([3]; 20 mg/kg oral route, brain) [ng/g] | Cmax Brain [3, 12] [ng/g] | other results |
| --- | --- | --- | --- | --- | --- | --- | --- | --- | --- | --- | --- | --- | --- | --- | --- | --- | --- | --- | --- | --- | --- |
| CSc1cc(/C=N/O)nc2c1ccc1cccnc12 [Compound 4, 4-Methylsulfanyl-[1,10]phenanthroline-2-carbaldehyde oxime] | 1 | Yes | 1.27 | 1.33 | 2.76 | 0.742 | 1.01 | 19.1 | 15 | 7.24 | 20.8 | 15 | 18 | 15 | 36 | 78.7 | 15 | 13.2 | 15.40 | 104.40 | minimal effective concentration [2]: 0.05 µM; Kp [3, 8]: 1.12; Kp [3, 9]: 1.5; half-life ([3]; 20 mg/kg oral route, brain): 39.6 min; Tmax ([3]; 200 mg/kg oral route, brain): 30 min; half-life ([3]; 200 mg/kg oral route, brain): 56.4 min; AUC ([3]; 200 mg/kg oral route, plasma): 1380 ng·h/mL; Cmax ([3]; 200 mg/kg oral route, plasma): 931 ng/mL; Tmax ([3]; 200 mg/kg oral route, plasma): 30 min; half-life ([3]; 200 mg/kg oral route, plasma): 55.2 min; half-life [3, 12]: 23.4 min; Cmax Brain ([3]; 200 mg/kg oral route, brain): 1394.40 ng/g |
| CC(C)Sc1cc(/C=N/O)nc2c1ccc1cccnc12 [Compound 7, 4-Isopropylsulfanyl-[1,10]phenanthroline-2-carbaldehyde oxime] | 1 | Yes | 1.04 | 3.71 | 0.278 | 0.417 | 7.11 | 3.19 | 240 | 378 | 106 | 18 | 99.6 | 4.8 | 319 | 104 | 60 | 268 | 19.62 | 386.10 | minimal effective concentration [2]: 0.05 µM; half-life ([3]; 20 mg/kg oral route, brain): 43.8 min; AUC ([3]; 200 mg/kg oral route, plasma): 1700 ng·h/mL; Cmax ([3]; 200 mg/kg oral route, plasma): 1210 ng/mL; Tmax ([3]; 200 mg/kg oral route, plasma): 30 min |
| COCCOc1cc(/C=N/O)nc2c1ccc1cccnc12 [Compound 8, 4-(2-Methoxy-ethoxy)-[1,10]phenanthroline-2-carbaldehyde oxime] | 1 | No | 0.0439 | 0.0524 | 0.0418 | 0.0621 | 6.67 |  | 15 | 325 | 396 | 15 | 234 | 15 | 244 | 690 | 15 | 66.6 | 24.60 | 36.10 | Protect. H2O2 (minimum concentration for which protection was determined) [2]: 50 nM; half-life ([3]; 20 mg/kg oral route, brain): 108 min; half-life [3, 12]: 10.8 min |
| CCN(CC)CCOc1cc(/C=N/O)nc2c1ccc1cccnc12 [Compound 10, 4-(2-Diethylamino-ethoxy)-[1,10]phenanthroline-2-carbaldehyde oxime] | 0.001 |  | 0.229 | 0.137 | 0.119 | 0.0876 | 12.5 | 77.6 | 60 | 184 | 149 | 60 | 240 | 4.8 | 148 | 136 | 4.8 | 486 | 13.07 | 18.7 | Toxic at maximum concentration tested (Yes/No) ([1]; at 1 μM): Yes; Protect. H2O2 (minimum concentration for which protection was determined) [2]: 50 nM; Kp [3, 8]: 8.32; Kp [3, 9]: 1.96; Tmax ([3]; 200 mg/kg oral route, brain): 120 min; AUC ([3]; 200 mg/kg oral route, plasma): 11500 ng·h/mL; Cmax ([3]; 200 mg/kg oral route, plasma): 3950 ng/mL; Tmax ([3]; 200 mg/kg oral route, plasma): 30 min; half-life ([3]; 200 mg/kg oral route, plasma): 227 min; half-life [3, 12]: 156 min; Cmax Brain ([3]; 200 mg/kg oral route, brain): 7751.80 ng/g |
